We go through 3 compounds from patent publication US4107297A, “Antibiotic compound” (The Kitasato Institute, priority 1976, dated 1978).

Values after ≈ are worked out from the molar mass of the structure shown. Values joined by “and” are separate entries in the source; they are usually repeats but may differ in a detail not shown here. Identical values can stand only once. Counter-ions that a name gives are not always drawn. Some results are limits rather than exact numbers.

In series [1] the test system is Piricularia oryzae. The series can be described thus: microbe, parasite or virus in culture. Format: cell-based. To be noted: pH 6.8.
Series [2] in a line: solubility in various solvent. Format: physicochemical.
Series [3] can be described thus: acute toxicity in mice (Behrens-Karber method). The note with it: mouse, in vivo, ip.
Series [4] has as its system Xanthomonas oryzae. The series can be described thus: microbe, parasite or virus in culture. The note with it: pH 7. It counts as cell-based.
For series [5], the system named is edema and ulcer. The series can be described thus: activity on edema and ulcer in rats. Format: in vivo. The method, then: The present antibiotic substance is a basic nitrogen-containing compound, viz. a so-called alkaloid-like substance. […] The minimum effective concentration is established to be 1.0 mg/kg.
The test system of series [6] is Proteus vulgaris IFO 3167. The series can be described thus: antibacterial activity, MIC by agar dilution method. It counts as cell-based. To be noted: IFO3167, medium N, pH 7.0. An excerpt: (§1) Table 1 indicates the antibacterial and antifungal activity of AM-2282 in terms of the minimum inhibitory concentration (mcg/ml) determined by agar dilution method.
(§2) *N: Peptone 0.5 % W/V, meat extract 0.5 % W/V, agar 1.2 % W/V, pH 7.0.
In general terms: In agar dilution the substance is mixed into plates at graded concentrations.

The test system of series [7] is Pseudomonas aeruginosa P-3. Described as above. It counts as cell-based. To be noted: P3, medium N, pH 7.0.
From the text: as §1, §2

Series [8] concerns Mycobacterium Smegmatis ATCC 607. The series is described as above. Format: cell-based. To be noted: Mycolicibacterium smegmatis, ATCC607, medium N, pH 7.0.
From the text: as §1, §2

Series [9] relates to Escherichia coli NIJH. The series is described as above. It counts as cell-based. The note with it: medium N, pH 7.0.
From the text: as §1, §2

In series [10] the test system is Staphylococcus aureus FDA 209P. The description is as above. The note with it: FDA209P, medium N, pH 7.0. Format: cell-based.
From the text: as §1, §2

For series [11], the system named is Bacillus substilis PCI 219. The description is as above. Format: cell-based. The note with it: PCI219, medium N, pH 7.0.
From the text: as §1, §2

Series [12] concerns Sarcina lutea PCI 1001. Described as above. Format: cell-based. The note with it: Micrococcus luteus, PCI1001, medium N, pH 7.0.
From the text: as §1, §2

Series [13] deals with Trichophyton mentagrophytes. The series can be described thus: antifungal activity, MIC by agar dilution method. It counts as cell-based. The note with it: medium P, pH 6.8.
From the text: as §1
(§3) P: Potato extract containing glucose 1.0 % W/V and agar 1.2 % W/V, pH 6.8

Series [14] concerns Aspergillus brevipus. The series can be described thus: antifungal activity, MIC by agar dilution method. It counts as cell-based. The note with it: medium P, pH 6.8.
From the text: as §1, §3

The test system of series [15] is Cryptococcus neoformans. The series can be described thus: antifungal activity, MIC by agar dilution method. It counts as cell-based. To be noted: medium P, pH 6.8.
From the text: as §1, §3

Series [16] deals with Aspergillus fumigatus. The series can be described thus: antifungal activity, MIC by agar dilution method. Format: cell-based. To be noted: medium P, pH 6.8.
From the text: as §1, §3

The subject of series [17] is Candida pseudotropicalis. The series can be described thus: antifungal activity, MIC by agar dilution method. It counts as cell-based. To be noted: Kluyveromyces marxianus, medium P, pH 6.8.
From the text: as §1, §3

The test system of series [18] is Saccharomyces sake. The series can be described thus: antifungal activity, MIC by agar dilution method. Format: cell-based. To be noted: medium P, pH 6.8.
From the text: as §1, §3

Series [19] deals with Sclerotinia cinerea. The series can be described thus: antifungal activity, MIC by agar dilution method. Format: cell-based. To be noted: medium P, pH 6.8.
From the text: as §1, §3

The subject of series [20] is Candida albicans. The series can be described thus: antifungal activity, MIC by agar dilution method. It counts as cell-based. The note with it: medium P, pH 6.8.
From the text: as §1, §3

For series [21], the system named is Microsporum gipseum. The series can be described thus: antifungal activity, MIC by agar dilution method. It counts as cell-based. To be noted: medium P, pH 6.8.
From the text: as §1, §3

The test system of series [22] is Aspergillus niger. The series can be described thus: antifungal activity, MIC by agar dilution method. It counts as cell-based. To be noted: medium P, pH 6.8.
From the text: as §1, §3

Series [23] relates to Trichophyton rubrum. The series can be described thus: antifungal activity, MIC by agar dilution method. It counts as cell-based. To be noted: medium P, pH 6.8.
From the text: as §1, §3

The test system of series [24] is arteriolar pressure (systolic) in the tail. The series can be described thus: test for hypertensive effect in rats disposed to spontaneous hypertension.

Usually LD50 stands for the dose at which mortality reaches 50%. A higher LD50 goes with lower toxicity. On to `CN[C@@H]1CC2O[C@@](C)([C@@H]1OC)n1c3ccccc3c3c4c(c5c6ccccc6n2c5c31)C(=O)NC4` [AM-2282], for which the MIC is 0.78 µg/mL (≈ 1.67 µM) in series [1]; 200 µg/mL (≈ 429 µM) in series [4]; > 200 µg/mL in [6]; > 200 µg/mL in series [7]; 50 µg/mL (≈ 107 µM) in series [8]; > 200 µg/mL in series [9]. In addition, the MIC is > 200 µg/mL in [10]; > 200 µg/mL in [11]; 25 µg/mL (≈ 53.6 µM) in series [12]; 25 µg/mL (≈ 53.6 µM) in [13]; 3.12 µg/mL (≈ 6.69 µM) in [14]; 50 µg/mL (≈ 107 µM) in series [15]. Moreover, the MIC in series [16] was 12.5 µg/mL (≈ 26.8 µM); in [17], 3.12 µg/mL (≈ 6.69 µM); in series [18] it was 3.12 µg/mL (≈ 6.69 µM); in series [19], 0.78 µg/mL (≈ 1.67 µM); in series [20], 6.25 µg/mL (≈ 13.4 µM); in [21], > 100 µg/mL. Moreover, the MIC stood at 25 µg/mL (≈ 53.6 µM) in series [22] and 6.25 µg/mL (≈ 13.4 µM) in series [23]. The Solubility result in series [2] (in chloroform) is “Sparingly soluble”; in [2] (in dimethyl formamide), “Soluble”; in series [2] (in dimethyl sulfoxide) it was “Soluble”; in series [2] (in ethyl acetate), “Sparingly soluble”; in [2] (in fat), “soluble in fat”; in series [2] (in methanol) it was “Sparingly soluble”. In addition, the Solubility entry in series [2] (in n-butyl acetate) is reported as “Sparingly soluble”; in [2] (in n-hexane), “Insoluble”; in [2] (in petroleum ether) it was “Insoluble”; in series [2] (in water), “Insoluble”. The compound further returned an LD50 in series [3] of 6.6 mg/kg. Also, the minimal effective dose in series [5] (Rattus norvegicus, read-out: minimum effective concentration (activity on edema and ulcer)) is 1 mg/kg. Also, the “activity on edema and ulcer” value in [5] (rats) was “exhibit an activity on edema and ulcer”.

With `CN[C@@H]1CC2O[C@@](C)([C@@H]1OC)n1c3ccccc3c3c4c(c5c6ccccc6n2c5c31)C(=O)NC4` [Hydrochloride of AM-2282], the “Degree of hypertension (%)” value in series [24] (0.16 mg/kg, oral, after 1 hr) is -2% and 2%; in [24] (0.16 mg/kg, oral, after 3 hrs) it was 1% and 2%; in [24] (0.16 mg/kg, oral, after 5 hrs) it was 1% and 2%; in series [24] (0.3 mg/kg, oral, after 3 hrs), 23% and 13%; in series [24] (0.3 mg/kg, oral, after 5 hrs), 11% and 12%; in [24] (0.63 mg/kg, oral, after 1 hr), 13% and 17%. The “Degree of hypertension (%)” value in series [24] (0.63 mg/kg, oral, after 3 hrs) was 13% and 24%; in [24] (0.63 mg/kg, oral, after 5 hrs), 25% and 24%; in series [24] (1.25 mg/kg, oral, after 1 hr), 15% and 18%; in series [24] (1.25 mg/kg, oral, after 3 hrs), 23% and 25%; in series [24] (1.25 mg/kg, oral, after 5 hrs) it was 31% and 39%. The minimal effective dose in series [24] (Rattus norvegicus, po, read-out: minimum dose rate at which the hypertensive effect appears) was 0.3 mg/kg.

`CC(N)(Cc1ccc(O)c(O)c1)C(=O)O` (stereo not drawn) [α-methyl DOPA, reference compound]: the “Degree of hypertension (%)” value turned out to be 7% in series [24] (100 mg/kg, after 1 hr); 13% in series [24] (100 mg/kg, after 3 hrs); 13% in series [24] (100 mg/kg, after 5 hrs).
